According to patent US11400063B2, “Early administration of low-dose colchicine after myocardial infarction” (INSTITUT DE CARDIOLOGIE DE MONTREAL, priority 2019, dated 2022):

Key:
[1] = tested on: patients with acute coronary syndromes (ACS); conditions: COPS, cited from earlier work
[2] = COLCOT biomarkers of inflammation; assay type: in vivo, human; conditions: baseline to 12 months
Text: (§1) Additional prespecified exploratory end points included the change from baseline to 6 months in the high-sensitivity C-reactive protein level and the change from baseline to 12 months in the white-cell count. The C-reactive protein biomarker substudy was implemented after a protocol amendment and was optional for sites and for patients; 34 sites chose to participate in this substudy.
(§2) The analysis of the primary end point was repeated in the per-protocol population (i.e., patients without major protocol deviations). Secondary and exploratory end points expressed as time to event were analyzed similarly. The changes from baseline to follow-up were analyzed with the use of an analysis of covariance model with adjustment for baseline value, and estimates of treatment effect are presented with 95% confidence intervals.
(§3) High-sensitivity C-reactive protein was measured in a subgroup of only 207 patients at the time of randomization and 6 months later, and the median concentration at trial entry was 4.28 mg per liter. […] The adjusted geometric mean percent changes in the high-sensitivity C-reactive protein level at 6 months after myocardial infarction were −70.0% in the colchicine group and −66.6% in the placebo group, and the placebo-adjusted geometric mean percent change was −10.1% percentage points in the colchicine group (95% CI, −28.6 to 13.4) (Table 17).
(§4) In Table 17, the placebo-adjusted geometric mean percent change was obtained by exponentiating the adjusted mean difference between groups from the analysis of covariance model (based on log-transformed data), then subtracting 1 and multiplying by 100.
(§5) In addition, the C-reactive protein biomarker sub-study was implemented following a protocol amendment and was optional for sites and for patients; 34 sites accepted to participate in this substudy. There were 213 and 208 patients who provided blood samples at baseline and 6 months, respectively. Paired baseline and 6-month hs-CRP values were available in 207 patients. Clinically available white blood cell counts were obtained from 2598 patients at baseline and 1998 patients at 12 months, and paired baseline and 12-month values were available in 1972 patients. Statistical analysis was conducted on the patients who provided both baseline and follow-up data and as these were exploratory analyses, no missing data was imputed.

[3] = tested on: high-sensitivity C-reactive protein level and white-cell count; experiment: COLCOT biomarkers of inflammation; assay type: in vivo, human; conditions: for Hs-C reactive protein, geometric mean: N = 99; for Total white blood cell count, geometric mean: N = 992
Text: as §1, §2, §3, §4, §5

patients with CAD = experiment: Meta-analysis of RCTs of colchicine for secondary cardiovascular prevention (pooled); assay type: in vivo, human
Experimental: Medline (PUBMED), EMBASE, and Cochrane central were searched to identify RCTs comparing colchicine to placebo or no colchicine for secondary cardiovascular prevention (inception to Sep. 1, 2020). To maximized sensitivity, citation chasing was performed in Google Scholar, Scopus, and Web of Science. Secondary prevention was defined as patients with clinically manifest or established CAD. Query terms included “colchicine”, “coronary artery disease”, “acute coronary syndrome”, “myocardial infarction”, “cardiovascular disease”, “atherosclerosis”, and “secondary prevention”, either separately or in combination.
RCTs that met the following criteria were included in the meta-analysis: 1) compared daily use of low-dose (0.5 mg) colchicine to placebo or no colchicine for secondary cardiovascular prevention; 2) the study reported at least one of the following outcomes: cardiovascular death, MI, stroke, cardiac arrest, or urgent coronary revascularization; 3) other than the trial medication, patients in both arms were treated in accordance to guideline directed medical therapy; 4) the minimum follow-up was at least 1 year; and 5) trials were published in a peer-reviewed scientific journal. Review articles, editorials, meta-analyses, observational studies, and published abstracts were excluded from the present meta-analysis.
Using standardized forms, data on study characteristics, patient characteristics, and outcomes were extracted on the intent-to-treat population independently by two reviewers from each eligible study. The Cochrane Collaboration risk-of-bias tool for randomized trials was used to evaluate study quality. The meta-analysis was conducted in accordance to the Preferred Reporting Items for Systematic Reviews and Meta-Analyses (PRISMA) guidelines.
The primary efficacy endpoint was a composite of cardiovascular death, MI, ischemic stroke, and urgent coronary revascularization. Secondary efficacy endpoints consisted of the components of the primary endpoint, composite of cardiovascular death, MI, and ischemic stroke, as well as deep vein thrombosis or pulmonary embolus, and atrial fibrillation (AF). To maximize consistency in pooling efficacy endpoints among trials, the primary and secondary composite efficacy and stroke endpoints in COLCOT were modified to meet the definition of primary and stroke endpoints of the LoDoCo2 trial. Therefore, adjudicated events of resuscitated cardiac arrest and non-ischemic stroke in COLCOT were excluded from the pooled primary endpoint. The component endpoint of stroke was also restricted to include only ischemic strokes. Incidence rates and hazards ratios (HRs) were calculated for the new primary composite endpoint and ischemic stroke endpoint using individual patient data from COLCOT.
Safety outcomes were limited to serious adverse events (SAEs) and included all-cause and non-cardiovascular mortality, hospitalization for gastrointestinal event, infection, and pneumonia, as well as diagnosis of cancer. Incidence of SAEs were recalculated for COLCOT using the intent-to-treat population.
The DerSimonian and Laird random-effects model was used to calculate the pooled HR and corresponding 95% confidence intervals (CI) for primary and secondary endpoints in the overall trial and in subgroup analyses of the primary endpoint. For safety outcomes, the DerSimonian and Laird random-effects model was used to compute risk ratios (RR) and corresponding 95% CIs. Heterogeneity was evaluated with the Higgins I^2 statistic. I^2 values of <25%, 25-75%, and >75% were considered to indicate low, moderate, and high degrees of heterogeneity, respectively. In subgroup analyses, the Qb statistic was calculated to determine inconsistency and variability in the treatment effect between strata. Publication and small study bias were assessed with the Egger's regression test and visually by asymmetry in funnel plots. […]

[4] = baseline to 12 months, listed as colchicine
[5] = colchicine vs placebo or no colchicine

COc1cc2c(c(OC)c1OC)-c1ccc(OC)c(=O)cc1[C@@H](NC(C)=O)CC2 [Colchicine, colchicine]
Primary composite outcome (cardiovascular mortality, myocardial infarction, ischemic stroke, urgent revascularization), Events N ([1]; N = 396, median follow-up 12 months): 19 N | Cardiovascular mortality, HR (95% CI) ([1]; colchicine vs placebo): 3.09 (0.32-29.71) | Ischemic stroke, HR (95% CI) ([1]; colchicine vs placebo): 0.34 (0.07-1.70) | Myocardial infarction, HR (95% CI) ([1]; colchicine vs placebo): 0.52 (0.25-1.07) | Primary composite outcome, HR (95% CI) ([1]; colchicine vs placebo): 0.47 (0.27-0.82) | Urgent coronary revascularization, HR (95% CI) ([1]; colchicine vs placebo): 0.26 (0.07-0.92) | all-cause mortality, HR ([1]; colchicine vs placebo): 8.20 | Cardiovascular mortality, Events % [1]: 0.8% | Cardiovascular mortality, Events N [1]: 3 N | Ischemic stroke, Events % [1]: 0.5% | Ischemic stroke, Events N [1]: 2 N | Myocardial infarction, Events % [1]: 3.7% | Myocardial infarction, Events N [1]: 11 N | Primary composite outcome, Events % [1]: 4.8% | Urgent coronary revascularization, Events % [1]: 0.8% | Urgent coronary revascularization, Events N [1]: 3 N | Circulating lymphocytes, Adjusted GM percent change [2]: 1.80% | Hs-C reactive protein, geometric mean ([3]; 6 months): 1.37 mg/L | Circulating lymphocytes, geometric mean ([3]; 12 months): 1.83 10^3/μL | Circulating neutrophils, geometric mean ([3]; 12 months): 3.95 10^3/μL | Total white blood cell count, geometric mean ([3]; 12 months): 6.95 10^3/μL | Circulating lymphocytes, geometric mean ([3]; Randomization): 1.79 10^3/μL | Circulating neutrophils, geometric mean ([3]; Randomization): 5.45 10^3/μL | Hs-C reactive protein, geometric mean ([3]; Randomization): 4.27 mg/L | Total white blood cell count, geometric mean ([3]; Randomization): 8.54 10^3/μL | Hs-C reactive protein, Adjusted GM percent change ([3]; baseline to 6 months): −70.0% | Hs-C reactive protein, Placebo-adjusted GM percent change ([3]; baseline to 6 months): −10.1% | Circulating lymphocytes, Placebo-adjusted GM percent change ([3]; baseline to 12 months): 1.10% | Circulating neutrophils, Adjusted GM percent change ([3]; baseline to 12 months): −27.63% | Circulating neutrophils, Placebo-adjusted GM percent change ([3]; baseline to 12 months): 0.45% | Total white blood cell count, Adjusted GM percent change ([3]; baseline to 12 months): −18.81% | Total white blood cell count, Placebo-adjusted GM percent change ([3]; baseline to 12 months): 0.26% | Total white blood cell count, Adjusted GM percent change [3, 4]: −18.8% | Total white blood cell count, Placebo-adjusted GM percent change [3, 4]: 0.3% | reduction in the C-reactive protein level ([3]; over the first 6 months after myocardial infarction, both trial groups): > 65% | AF diagnoses and AF episodes, pooled HR (patients with CAD; [5]): 0.86 | MIs, pooled HR (patients with CAD; [5]): 0.62 | all-cause mortality, pooled RR (patients with CAD; [5]): 1.04 | ischemic strokes, pooled HR (patients with CAD; [5]): 0.38 | non-cardiovascular mortality, pooled RR (patients with CAD; [5]): 1.38 | urgent coronary revascularization, pooled HR (patients with CAD; [5]): 0.58 | primary composite endpoint (cardiovascular mortality, MI, ischemic stroke, urgent coronary revascularization), pooled HR (patients with CAD; colchicine vs placebo or no colchicine, random-effects model): 0.68 | cardiovascular mortality, difference between arms (patients with CAD; pooled RCTs): no statistically significant difference | reduction in the incidence of major cardiovascular events (patients with CAD; pooled RCTs): 32% | risk reduction for MIs (patients with CAD; pooling HRs from the RCTs): 38% | risk reduction for ischemic strokes (patients with CAD; pooling HRs from the RCTs): 62% | risk reduction for urgent coronary revascularization (patients with CAD; pooling HRs from the RCTs): 44%
